US6492128B1, “Drug screen targeting lipoprotein-membrane anchorage” (Ramot University Authority for Applied Research & …, priority 1997, dated 2002)

How the values were obtained:
[1] = molecular target: T1, oncogenic Ras in isolated EJ cell membranes (Homo sapiens, UniProt P01112, G12V); experiment: Cell-free assay: dislodging of Ras from isolated EJ cell membranes; format: biochemical, rat; settings: for Dislodging of Ras (% of control) in a cell free system (10 μM drug): isolated EJ cell membranes, Ras in pellet; for dislodging of Ras from isolated membrane: 10 μM
T1 construct: expressed in transfected cells; host or cells: Rat1 fibroblasts transformed with Ha-Ras (EJ cells)
Experimental: The cell-free assay is utilized in these next experiments; i.e. the effect of FTS on Ras in isolated membranes was investigated. Briefly, we used EJ cell membranes (total particulate fraction) prepared in homogenization buffer (10 mM Tris-HCl, pH 8.5, 0.32 M sucrose) with protease inhibitors. The membranes were stored in aliquot at −70° C. and thawed prior to use. In a standard assay, membranes containing 15 μg of protein are incubated in a total volume of 100 μl of homogenization buffer with or without drug for 60 min at 37° C. The drugs are prepared freshly in 100% DMSO, and diluted with 50 mM Tris-HCl pH 8.5 to yield 5× drug concentration in 10% DMSO. It is important to prepare these solutions at room temperature, otherwise the drugs may precipitate. The drug solutions (20 μl) are pipetted into the assay tubes, the membrane/buffer mixtures (80 μl) are quickly added, the tubes are gently mixed, and the tubes are transferred to a 37° C. shaking water bath. The reactions are stopped by addition of 900 μl of cold homogenization buffer (without sucrose) containing 10 μg BSA. Following a 5 min incubation at room temperature, the membranes are pelleted by centrifugation in a benchtop microfuge (14,000 rpm). The supernatants are removed and the pellets are subjected to mini-SDS-PAGE followed by Immunoblotting (pan anti-Ras antibodies) and ECL assays. These assays are detailed infra. It is considered preferable to perform the reactions at 25-37° C. and to use relatively small amounts of membrane protein in the assay. Another preference is to dilute the membranes in a solution containing BSA at the end of the reaction period.

EJ cells = experiment: Inhibition of EJ cells growth; format: cell-based, rat
[2] = test system: total oncogenic Ras in EJ cells; experiment: Total cellular Ras in EJ cells (immunoblot of total homogenate); format: cell-based, rat; settings: 15 hours, total cell homogenate; read-out: EC50 for decrease in the total amount of Ras in EJ cells
Experimental: In experiments where the total amount of Ras was estimated, the cells were homogenized as detailed above and samples of the total cell-homogenate (15 μg protein) were loaded onto the gel. For immunoblotting, we have also used the pan-Ras Ab (Calbiochem) at a 1:2000 dilution, and anti-mouse IgG-HRP at a 1:7500 dilution. To develop, the blots were exposed to ECL. The same immunoblotting procedure was also used in the cell-free system experiments. If Ras is degraded after it is dislodged, total cellular Ras should fall after FTS treatment. To investigate this, EJ cells were incubated for 15 hours, with various concentrations of FTS as detailed in FIG. 3, supra, then homogenized and total cell Ras measured by immunoblot assay. FTS caused a dose dependent decrease in the total amount of Ras in treated EJ cells. Densitometric analysis of data, such as that of FIG. 5A, is presented in FIG. 5B as the mean percent of control of 3 experiments. The EC5O was 15 μM (FIG. 5B), which is similar to that determined for the effect of FTS on particulate Ras.

Ras = settings: cited from earlier work
normal Ras in Rat1 cells = experiment: Ras (total and particulate) in Rat1 cells; format: cell-based, rat
Experimental: In experiments where the total amount of Ras was estimated, the cells were homogenized as detailed above and samples of the total cell-homogenate (15 μg protein) were loaded onto the gel. For immunoblotting, we have also used the pan-Ras Ab (Calbiochem) at a 1:2000 dilution, and anti-mouse IgG-HRP at a 1:7500 dilution. To develop, the blots were exposed to ECL. The same immunoblotting procedure was also used in the cell-free system experiments. The effect of FTS on total Ras in Rat1 cells (Rat1 cells have normal rather than oncogenic Ras) was also examined using the same procedures and conditions as that used for EJ cells in FIGS. 5A & 5B. […] However, dislodging normal Ras in Rat1 cells required 50 μM FTS whereas the oncogenic Ras found in EJ cell is dislodged at lower concentrations of the drug (FIG. 5A). Thus, FTS may have some selectivity towards the activated forms of Ras. This may account for the fact that FTS is not toxic at doses that inhibit the growth of Ras dependent cells and tumors (see toxicology section below.)

[3] = test system: Erb B2 and Ha-Ras-transformed cells; settings: cited from earlier work
[4] = Toxicity / cytotoxicity of FTS
[5] = test system: G protein β (Gβ) in EJ cell membranes; experiment: Immunoblotting of Gβ in EJ cell membranes; format: cell-based, rat; settings: same conditions as for Ras detection
Experimental: The level of G protein β (Gβ) was determined in membranes of EJ cells that were grown in the absence and in the presence of FTS in the same conditions that were used for Ras detection. A sample of 25 μg membrane proteins were separated by SDS-PAGE (12.5%), and blotted to nitrocellulose paper. Immunoblots were performed by using rabbit anti Gβ antibodies (dilution of 1:1000) as a first antibody and goat anti rabbit IgG HRP (Sigma) as a second antibody (dilution of 1:5000). To develop, the blots were exposed to ECL.

[6] = molecular target: T2, oncogenic Ras in EJ cells (Homo sapiens, UniProt P01112, G12V); experiment: Dislodging of Ras from membranes in intact EJ cells (particulate/cytosolic fractions, immunoblot); format: cell-based, rat
T2 construct: expressed in transfected cells; host or cells: Rat1 fibroblasts transformed with Ha-Ras (EJ cells)
Experimental: Ha-Ras transformed Rat1 cells (EJ cells) were plated at a density of 4×10^6 cells/10 cm dish. After 3 hr the cells were treated for 15 hr (dose response) or for 2, 6, 12, or 24 hr (time course) with FTS (0-50 μM, dose response) or (25 μM, time course) or (0.1% DMSO, control). The cells were then detached from the dishes and washed in phosphate-buffered saline (PBS). All the subsequent procedures were carried out at 4° C. The cell pellets were homogenized in […] of homogenization buffer 20 mM Tris-HCl, pH=7.6) leupeptine (5 μg/ml), pepstatine (5 μg/ml), benzamidine (1 μM), phenylmethyl-sulphonyl fluoride (1 mM), aprotinine (5 units/ml), and MgCI2 (10 mM). Total cell membranes (P100) and cytosol (S100) were obtained by a 100,000×g centrifugation step (30 min). Following resuspension of the P100 in 750 μl of homogenization buffer, both S100 and P100 received 75 μl of 10×immunoprecipitation buffer (100 mM Tris-HCl, pH=7.5, 1.5 M NaCl, 10% Triton X-100). Samples were frozen for 1 hr at −70° C. and then thawed. Insoluble material was removed by a 10 min 10,000×g spin and the clear supernatant was used for immunoprecipitation. Samples containing 500 μg protein of P100 and the equivalent amount of S100 protein, were incubated for 12 hr with 2 μg of Y13-259 antibodies coupled to agarose bends (Oncogene Science). The beads were then precipitated and washed four times with 1 ml of immunoprecipitation buffer, twice with 1 ml of 20 mM Tris-HCl, pH=7.6, and then resuspended in 20 μl of SDS-sample buffer. Proteins were then separated by 12.5% SDS-PAGE (mini gels) and blotted onto nitrocellulose paper. The paper was blocked with 10% skimmed milk in tris-buffered saline and then incubated for 7 hr with rabbit anti-Ras serum diluted 1:1000 with tris buffered saline containing 10 mg/ml bovine serum albumin and 0.05% tween-20 (anti-Ras antiserum was prepared by immunizing rabbits with recombinant human-Ha-Ras (Marom et al.). Immunoblots were then incubated for 1 hr with 1:5000 dilution of goat anti-rabbit IgG-horseradish peroxidase (HRP) conjugate (Sigma) and developed by exposing to ECL.
Here, EJ cells were plated at a density of 4×10^6 cells/10 cm dish. The plated cells were cultured for 3 hours and then received new media containing 0.1% DMSO with or without 25 μM FTS. The cells were further cultured for 2, 4, 12, or 24 hours before harvesting and fractionation into particulate and cytosolic fractions. Ras proteins were immunoprecipitated from the fractions, subjected to SDS-PAGE, immunoblotted and developed with ECL as described in the methods, supra. The density of the bands produced from the particulate fraction (FIG. 3A) and the cytosolic fraction (FIG. 3B) was measured with a scanning densitometer. The data obtained from the densitometric analysis are presented in FIG. 3C as the ratio of values of test (FTS treated) over control (DMSO only) cells. The mean values of three separate experiments are shown.
Referring to FIGS. 4A and 4B, the effect of FTS in dislodging Ras from EJ cell membranes was investigated for dose dependence. Here, Ras protein concentration was determined in the particulate fraction of EJ cells that were exposed to the indicated concentrations of FTS (0-50 μM) and AFC (50 μM) for 15 hours as detailed for FIG. 3, supra. The densitometric analysis of the immunoblot bands shown in FIG. 4A are presented in FIG. 4B as mean % of control of three experiments.

[7] = FTS 5-50 μM; cited from earlier work
[8] = test system: v-raf or T-antigen transformed cells; settings: cited from earlier work

Compound: CC(C)=CCC/C(C)=C/CC/C(C)=C/CSc1c(Cl)cccc1C(=O)O [3-CI-FTS]
- Dislodging of Ras (% of control) in a cell free system (10 μM drug) [1]: 109 % of control
- dislodging of Ras from isolated membrane ([1]; cell free): did not dislodge Ras
- EC50 (EJ cells; EJ cells): > 50 µM

Compound: CC(C)=CCCC(C)=CCCC(C)=CCSc1cc(Cl)ccc1C(=O)O [4-Cl-FTS]
- Dislodging of Ras (% of control) in a cell free system (10 μM drug) [1]: 85 % of control
- EC50 (EJ cells; EJ cells): 28 ± 3 µM

Compound: CC(C)=CCC/C(C)=C/CC/C(C)=C/CSc1ccc(Cl)cc1C(=O)O [5-Cl-FTS]
- Dislodging of Ras (% of control) in a cell free system (10 μM drug) [1]: 87 % of control
- EC50 (EJ cells; EJ cells): 8.5 ± 2.4 µM

Compound: COC(=O)c1ccccc1SCC=C(C)CCC=C(C)CCC=C(C)C [FMTS, carboxymethyl FTS]
- Dislodging of Ras (% of control) in a cell free system (10 μM drug) [1]: 110 % of control
- dislodging of Ras from isolated membrane ([1]; cell free): did not dislodge Ras
- Inhibition of EJ cells Growth EC50 (μM) (EJ cells; EJ cells): Not active at 50 μM

Compound: CC(C)=CCCC(C)=CCCC(C)=CCSc1ccccc1C(=O)O [FTS, Farnesylthiosalicylic acid]
- EC50 [2]: 15 µM
- inhibition of farnesylation or methylation of Ras in intact cells (Ras): does not inhibit farnesylation or methylation of Ras
- concentration required for dislodging normal Ras in Rat1 cells (normal Ras in Rat1 cells; particulate Ras, Rat1 cells): 50 µM
- effect on total Ras in Rat1 cells (normal Ras in Rat1 cells; same conditions as EJ cells, dose response shifted to the right): significant decrease in Ras
- Dislodging of Ras (% of control) in a cell free system (10 μM drug) [1]: 56 % of control
- EC50 ([1]; cell free, 60 min at 37° C.): 10 to 15 µM
- concentration range of dose-dependent growth inhibition [3]: 1-25 μm
- toxicity at doses that inhibit the growth of Ras dependent cells and tumors [4]: not toxic
- amount of Gβ associated with EJ cell membranes [5]: did not reduce the amount of Gβ
- cytosolic Ras after exposure ([6]; FTS 25 μM, 2 to 6 hours after exposure, transient): significant increase in cytosolic Ras
- decrease in the amount of particulate Ras versus control levels ([6]; FTS 25 μM, after 24 hours, EJ cells, densitometry, 3 experiments): 80%
- concentration range that will produce maximal displacement of Ras ([6]; cell membranes): 10 to 50 µM
- concentrations required to dislodge Ras from cell membranes ([6]; cell membranes): < 25 µM
- EC50 ([6]; intact EJ cells, 15 hours, 0-50 μM, read-out: EC50 for dislodging Ras from EJ cell membranes (particulate Ras)): ~10 µM
- cytotoxicity at growth-inhibiting concentrations [7]: without producing cytotoxicity
- effect on growth of v-raf or T-antigen transformed cells [8]: does not affect the growth
- EC50 (EJ cells; Rattus norvegicus, EJ): 7.5 ± 3.7 µM

Compound: CC(C)=CCC/C(C)=C/CSc1ccccc1C(=O)O [GTS, geranyl thiosalicylic acid]
- Dislodging of Ras (% of control) in a cell free system (10 μM drug) [1]: 100 % of control
- dislodging of Ras from isolated membrane ([1]; cell free): did not dislodge Ras
- Inhibition of EJ cells Growth EC50 (μM) (EJ cells; EJ cells): Not active at 50 μM
